This assay has as its target T1, GST-tagged-Wee1 kinase (Homo sapiens, UniProt P30291).
T1 construct: purchased Carnabio 05-177
In words: Wee1 time-resolved fluorescence equilibrium binding assay (displacement of Oregon Green-labeled ATP-competitive kinase probe). Particulars: enzyme binding data; GST-tagged-Wee1 kinase 2 nM, fluorescent probe 300 nM, inhibitor 0.003 to 10 micromolar, 1 hour incubation; read-out: Wee-1 binding (Ki nM). Here is the method: Wee1 kinase was assayed using a time-resolved fluorescence equilibrium binding assay monitoring displacement of a rapidly reversible Oregon Green-labeled ATP-competitive kinase probe (N-(2-(2-(2-(4-(4-(5-chloro-4-(2-(1-hydroxycyclobutyl)thiazol-5-yl)-1H-pyrrolo[2,3-b]pyridin-2-yl)phenyl)piperazin-1-yl)ethoxy)ethoxy)ethyl)-2′,7′-difluoro-3′,6′-dihydroxy-3-oxo-3H-spiro[isobenzofuran-1,9′-xanthene]-5-carboxamide) by competitive Wee1 inhibitors.
Table 1 depicts enzyme binding data (Ki)for exemplary compounds.
T1 sequence (P30291 whole entry): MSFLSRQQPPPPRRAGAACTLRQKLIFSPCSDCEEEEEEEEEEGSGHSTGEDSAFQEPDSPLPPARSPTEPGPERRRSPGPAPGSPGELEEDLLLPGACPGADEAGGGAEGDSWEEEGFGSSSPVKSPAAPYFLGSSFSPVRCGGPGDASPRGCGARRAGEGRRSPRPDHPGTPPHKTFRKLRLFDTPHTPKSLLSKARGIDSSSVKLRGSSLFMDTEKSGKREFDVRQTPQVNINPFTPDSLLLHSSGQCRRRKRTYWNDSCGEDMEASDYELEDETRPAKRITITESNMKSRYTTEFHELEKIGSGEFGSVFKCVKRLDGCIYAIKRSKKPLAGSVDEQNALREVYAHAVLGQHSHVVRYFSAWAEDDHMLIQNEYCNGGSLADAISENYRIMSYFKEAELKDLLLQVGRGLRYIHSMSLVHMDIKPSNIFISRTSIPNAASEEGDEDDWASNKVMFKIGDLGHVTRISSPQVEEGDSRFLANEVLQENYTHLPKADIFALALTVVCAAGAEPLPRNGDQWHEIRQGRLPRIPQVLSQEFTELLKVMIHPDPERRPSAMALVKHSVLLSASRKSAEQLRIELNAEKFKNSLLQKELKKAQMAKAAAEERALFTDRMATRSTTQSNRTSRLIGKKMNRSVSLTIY
Take `C=Cc1cn(-c2c(F)cccc2Cl)c(=O)c2cnc(Nc3ccc4c(c3)CC(N(C)C)C4)nc12` (stereo not shown) [Example 64, 6-(2-chloro-6-fluorophenyl)-2-{[2-(dimethylamino)-2,3-dihydro-1H-inden-5-yl]amino}-8-ethenylpyrido[4,3-d]pyrimidin-5(6H)-one]: the Ki (commonly a measure of affinity in units of concentration, obtained from inhibition or displacement) came to 0.5 nM.
With `Cc1cn(-c2c(Cl)cccc2Cl)c(=O)c2cnc(Nc3ccc(N4CCN(CCCN(C)C)CC4)cc3)nc12` [Example 131, 6-(2,6-dichlorophenyl)-2-[(4-{4-[3-(dimethylamino)propyl]piperazin-1-yl}phenyl)amino]-8-methylpyrido[4,3-d]pyrimidin-5(6H)-one] the figure was 0.2 nM.
`O=c1c2cnc(Nc3ccc4c(c3)CCNC4)nc2c(-c2ncc[nH]2)cn1-c1c(Cl)cccc1Cl` [Example 81, 6-(2,6-dichlorophenyl)-8-(1H-imidazol-2-yl)-2-(1,2,3,4-tetrahydroisoquinolin-6-ylamino)pyrido[4,3-d]pyrimidin-5(6H)-one]: the Ki amounted to 0.4 nM.
Consider `Cc1cccc(Cl)c1-n1cc(C)c2nc(Nc3ccc4c(c3)CN(C)CC43CC3)ncc2c1=O` [Example 90, 6-(2-chloro-6-methylphenyl)-8-methyl-2-[(2′-methyl-2′,3′-dihydro-1′H-spiro[cyclopropane-1,4′-isoquinolin]-7′-yl)amino]pyrido[4,3-d]pyrimidin-5(6H)-one], for which the Ki is 0.193 nM.
The same measure for `COC(=O)c1ccc(Cl)c(-n2cc(C)c3nc(Nc4ccc(N5CCC(N(C)C)CC5)cc4)ncc3c2=O)c1` [Example 108, methyl 4-chloro-3-[2-({4-[4-(dimethylamino)piperidin-1-yl]phenyl}amino)-8-methyl-5-oxopyrido[4,3-d]pyrimidin-6(5H)-yl]benzoate]: 242 nM; for `Cc1cn(-c2c(Cl)cccc2Cl)c(=O)c2cnc(Nc3ccc(SCCN(C)C)cc3)nc12` [Example 92, 6-(2,6-dichlorophenyl)-2-[(4-{[2-(dimethylamino)ethyl]sulfanyl}phenyl)amino]-8-methylpyrido[4,3-d]pyrimidin-5(6H)-one]: 0.378 nM.
Consider `Cc1cn(-c2c(Cl)cccc2Cl)c(=O)c2cnc(Nc3ccc(N4CCN(CCN(C)C)CC4)cc3)nc12` [Example 138, 6-(2,6-dichlorophenyl)-2-[(4-{4-[2-(dimethylamino)ethyl]piperazin-1-yl}phenyl)amino]-8-methylpyrido[4,3-d]pyrimidin-5(6H)-one], for which the Ki was found to be 0.2 nM.
`C=Cc1cn(-c2c(Cl)cccc2Cl)c(=O)c2cnc(Nc3ccc(N4CCC(N(C)C)CC4)cc3)nc12` [Example 50, 6-(2,6-dichlorophenyl)-2-({4-[4-(dimethylamino)piperidin-1-yl]phenyl}amino)-8-ethenylpyrido[4,3-d]pyrimidin-5(6H)-one]: the Ki came out at 0.5 nM.
The same measure for `Cc1n[nH]c(C)c1-n1cc(C)c2nc(Nc3ccc4c(c3)CNCC4)ncc2c1=O` [Example 123, 6-(3,5-dimethyl-1H-pyrazol-4-yl)-8-methyl-2-(1,2,3,4-tetrahydroisoquinolin-7-ylamino)pyrido[4,3-d]pyrimidin-5(6H)-one]: 1.3 nM.
With `Cc1cn(-c2c(F)cccc2Cl)c(=O)c2cnc(Nc3ccc4c(c3)CCNC4)nc12` [Example 72, 6-(2-chloro-6-fluorophenyl)-8-methyl-2-(1,2,3,4-tetrahydroisoquinolin-6-ylamino)pyrido[4,3-d]pyrimidin-5(6H)-one] the figure was 5.1 nM.
With `CN(C)C1Cc2ccc(Nc3ncc4c(=O)n(-c5c(Cl)cccc5Cl)cc(CF)c4n3)cc2C1` (stereo not shown) [Example 112, 6-(2,6-dichlorophenyl)-2-{[2-(dimethylamino)-2,3-dihydro-1H-inden-5-yl]amino}-8-(fluoromethyl)pyrido[4,3-d]pyrimidin-5(6H)-one] the figure was 0.4 nM; with `CN1CCC(c2ccc(Nc3ncc4c(=O)n(-c5c(Cl)cccc5Cl)cc(C(F)F)c4n3)cc2)CC1` [Example 82, 6-(2,6-dichlorophenyl)-8-(difluoromethyl)-2-{[4-(1-methylpiperidin-4-yl)phenyl]amino}pyrido[4,3-d]pyrimidin-5 (6H)-one], 0.1 nM.
For the compound `CN(C)C1CCN(c2ccc(Nc3ncc4c(=O)n(-c5c(Cl)cccc5Cl)cc(C(F)F)c4n3)cc2)CC1` [Example 84, 6-(2,6-dichlorophenyl)-8-(difluoromethyl)-2-({4-[4-(dimethylamino)piperidin-1-yl]phenyl}amino)pyrido[4,3-d]pyrimidin-5(6H)-one], the Ki is 0.328 nM.
In the case of `Cc1cn(-c2c(Cl)cccc2Cl)c(=O)c2cnc(Nc3ccc4c(c3)CNC4(C)C)nc12` [Example 121, 6-(2,6-dichlorophenyl)-2-[(1,1-dimethyl-2,3-dihydro-1H-isoindol-5-yl)amino]-8-methylpyrido[4,3-d]pyrimidin-5(6H)-one], the Ki stood at 0.1 nM.
With `CN1Cc2cc(Nc3ncc4c(=O)n(-c5c(Cl)cccc5Cl)cc(CF)c4n3)ccc2C2(CC2)C1` [Example 113, 6-(2,6-dichlorophenyl)-8-(fluoromethyl)-2-[(2′-methyl-2′,3′-dihydro-1′H-spiro[cyclopropane-1,4′-isoquinolin]-7′-yl)amino]pyrido[4,3-d]pyrimidin-5 (6H)-one] the figure was 0.4 nM; with `Cc1cn(-c2c(Cl)cccc2Cl)c(=O)c2cnc(Nc3ccc(NCCN(C)C)cc3)nc12` [Example 130, 6-(2,6-dichlorophenyl)-2-[(4-{[2-(dimethylamino)ethyl]amino}phenyl)amino]-8-methylpyrido[4,3-d]pyrimidin-5(6H)-one], 0.3 nM.
As to `Cc1cccc(O)c1-n1cc(C)c2nc(Nc3ccc4c(c3)CNCC4)ncc2c1=O` [Example 118, 6-(2-hydroxy-6-methylphenyl)-8-methyl-2-(1,2,3,4-tetrahydroisoquinolin-7-ylamino)pyrido[4,3-d]pyrimidin-5(6H)-one], the Ki is 0.6 nM.
Turning to `CNc1ncc2c(=O)n(-c3c(Cl)cccc3Cl)cc(C)c2n1` [Example 65, 6-(2,6-dichlorophenyl)-8-methyl-2-(methylamino)pyrido[4,3-d]pyrimidin-5(6H)-one], the Ki was found to be 127 nM.
For `Cc1cn(-c2c(Cl)cccc2Cl)c(=O)c2nnc(Nc3ccc4c(c3)CN(C)CC43CC3)nc12` [Example 135, 7-(2,6-dichlorophenyl)-5-methyl-3-[(2′-methyl-2′,3′-dihydro-1′H-spiro[cyclopropane-1,4′-isoquinolin]-7′-yl)amino]pyrido[4,3-e][1,2,4]triazin-8(7H)-one], the Ki amounted to 5.7 nM.
With `Cc1cn(-c2cccc3cccnc23)c(=O)c2cnc(Nc3ccc4c(c3)CN(C)CC43CC3)nc12` [Example 97, 8-methyl-2-[(2′-methyl-2′,3′-dihydro-1′H-spiro[cyclopropane-1,4′-isoquinolin]-7′-yl)amino]-6-(quinolin-8-yl)pyrido[4,3-d]pyrimidin-5(6H)-one], the Ki amounted to 28.2 nM.
Take `Cc1cccc(C)c1-n1cc(C)c2nc(Nc3ccc(N4CCN(CCCN(C)C)CC4)cc3)ncc2c1=O` [Example 139, 2-[(4-{4-[3-(dimethylamino)propyl]piperazin-1-yl}phenyl)amino]-6-(2,6-dimethylphenyl)-8-methylpyrido[4,3-d]pyrimidin-5(6H)-one]: the Ki was determined as 2.1 nM.
`Cc1cn(-c2ccccc2Cl)c(=O)c2cnc(Nc3ccc4c(c3)CNCC4)nc12` [Example 98, 6-(2-chlorophenyl)-8-methyl-2-(1,2,3,4-tetrahydroisoquinolin-7-ylamino)pyrido[4,3-d]pyrimidin-5(6H)-one]: the inhibition constant (Ki) stood at 0.5 nM.

Source of the values: patent US9718821B2, “Pyridopyrimidinone inhibitors of kinases” (AbbVie Inc., priority 2012, dated 2017).
